Literature values as cited in patent US6479236B2, “Genotyping the human UDP-glucuronosyltransferase 1 (UGT1) gene” (DNA Sciences Laboratories, Inc., priority 1998, dated 2002).

Columns and labels:
UGT1*1 = molecular target: T1, UGT1*1 (Homo sapiens, UniProt P22309); details: for Km: substrate of UGT1*1; for binding to UGT1*1 compared with bilirubin: relative to the endogenous substrate bilirubin
T1 sequence (P22309 26-533): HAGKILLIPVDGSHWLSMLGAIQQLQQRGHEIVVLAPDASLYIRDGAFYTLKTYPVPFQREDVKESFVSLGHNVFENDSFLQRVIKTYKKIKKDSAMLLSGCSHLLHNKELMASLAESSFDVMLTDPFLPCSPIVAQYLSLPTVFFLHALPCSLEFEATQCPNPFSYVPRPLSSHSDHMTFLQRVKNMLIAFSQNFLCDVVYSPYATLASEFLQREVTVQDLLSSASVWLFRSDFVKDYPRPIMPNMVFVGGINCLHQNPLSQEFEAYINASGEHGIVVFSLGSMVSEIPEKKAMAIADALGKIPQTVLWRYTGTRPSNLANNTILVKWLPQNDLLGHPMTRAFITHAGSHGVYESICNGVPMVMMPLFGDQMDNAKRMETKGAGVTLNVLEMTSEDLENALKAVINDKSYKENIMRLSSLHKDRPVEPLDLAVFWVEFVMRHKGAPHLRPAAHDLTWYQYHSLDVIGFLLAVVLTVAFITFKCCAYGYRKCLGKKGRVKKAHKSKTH

UGT1*7 = molecular target: T2, UGT1*7 (Homo sapiens, UniProt O60656); details: substrate of UGT1*7
T2 sequence (O60656 26-530): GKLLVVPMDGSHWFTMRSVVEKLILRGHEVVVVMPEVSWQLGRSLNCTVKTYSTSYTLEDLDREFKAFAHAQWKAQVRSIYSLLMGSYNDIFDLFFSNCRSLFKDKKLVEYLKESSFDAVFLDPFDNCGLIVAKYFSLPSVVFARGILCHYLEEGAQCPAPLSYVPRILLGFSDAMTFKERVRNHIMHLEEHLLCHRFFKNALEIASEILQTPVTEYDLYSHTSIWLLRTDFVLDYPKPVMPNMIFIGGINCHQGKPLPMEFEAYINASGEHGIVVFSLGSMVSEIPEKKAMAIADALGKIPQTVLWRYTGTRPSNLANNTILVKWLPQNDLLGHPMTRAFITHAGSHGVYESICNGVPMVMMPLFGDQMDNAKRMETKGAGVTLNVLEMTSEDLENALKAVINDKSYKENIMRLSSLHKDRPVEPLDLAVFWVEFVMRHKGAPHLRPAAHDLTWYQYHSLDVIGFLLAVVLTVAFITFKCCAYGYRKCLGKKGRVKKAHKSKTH

UGT1*6 = UGT1*6 (Homo sapiens, UniProt P19224); details: substrate of UGT1*6

Row | Compound | Km (UGT1*1) [µM] | Km (UGT1*7) [µM] | binding to UGT1*1 compared with bilirubin (UGT1*1) | Km (UGT1*6) [µM]
1 | O=C(O)[C@H]1O[C@H](OP(=O)(O)OP(=O)(O)OC[C@H]2O[C@@H](n3ccc(=O)[nH]c3=O)[C@H](O)[C@@H]2O)[C@H](O)[C@@H](O)[C@@H]1O [UDPGA] | 410 | 410 |  | 
2 | Cc1cc(O)c2c(c1)C(=O)c1cc(O)cc(O)c1C2=O [emodin] |  |  | more readily binds | 
3 | CC(=O)Nc1ccc(O)cc1 [Acetaminophen] |  | 50000 |  | 2000
4 | C=CC1=C(C)/C(=C/c2[nH]c(Cc3[nH]c(/C=C4\NC(=O)C(C)=C4C=C)c(C)c3CCC(=O)O)c(CCC(=O)O)c2C)NC1=O [Bilirubin] | 24 |  |  | 
5 | CCCCCCCCOC(=O)c1cc(O)c(O)c(O)c1 [Octyl gallate] | 162 | 158 | more readily binds | 
6 | CC(C)c1cccc(C(C)C)c1O [Propofol] |  | 172 |  | 
